For one assay, the system named is SK-MEL-28. Briefly: Cytotoxicity against human SK-MEL-28 cells assessed as reduction in cell viability by MTT assay. It is filed as functional, cell-based.
The test system of the next assay is A-375. Description: Cytotoxicity against human A-375 cells assessed as reduction in cell viability by MTT assay. The assay is classed as functional, cell-based.
For a further assay, the system named is L132. Description: Cytotoxicity against human L132 cells assessed as reduction in cell viability by MTT assay. The assay is classed as cell-based. Background: Tetrazolium dyes change colour on reduction, which living cells bring about.
The target of assay [1] is Serine/threonine-protein kinase B-raf (Homo sapiens, UniProt P15056, V600E). Briefly: Inhibition of human BRAF V600E mutant using MEK1 as substrate by […] assay.
Sequence of Serine/threonine-protein kinase B-raf (Homo sapiens, UniProt P15056, V600E) (P15056 2-766 V600E limits assumed): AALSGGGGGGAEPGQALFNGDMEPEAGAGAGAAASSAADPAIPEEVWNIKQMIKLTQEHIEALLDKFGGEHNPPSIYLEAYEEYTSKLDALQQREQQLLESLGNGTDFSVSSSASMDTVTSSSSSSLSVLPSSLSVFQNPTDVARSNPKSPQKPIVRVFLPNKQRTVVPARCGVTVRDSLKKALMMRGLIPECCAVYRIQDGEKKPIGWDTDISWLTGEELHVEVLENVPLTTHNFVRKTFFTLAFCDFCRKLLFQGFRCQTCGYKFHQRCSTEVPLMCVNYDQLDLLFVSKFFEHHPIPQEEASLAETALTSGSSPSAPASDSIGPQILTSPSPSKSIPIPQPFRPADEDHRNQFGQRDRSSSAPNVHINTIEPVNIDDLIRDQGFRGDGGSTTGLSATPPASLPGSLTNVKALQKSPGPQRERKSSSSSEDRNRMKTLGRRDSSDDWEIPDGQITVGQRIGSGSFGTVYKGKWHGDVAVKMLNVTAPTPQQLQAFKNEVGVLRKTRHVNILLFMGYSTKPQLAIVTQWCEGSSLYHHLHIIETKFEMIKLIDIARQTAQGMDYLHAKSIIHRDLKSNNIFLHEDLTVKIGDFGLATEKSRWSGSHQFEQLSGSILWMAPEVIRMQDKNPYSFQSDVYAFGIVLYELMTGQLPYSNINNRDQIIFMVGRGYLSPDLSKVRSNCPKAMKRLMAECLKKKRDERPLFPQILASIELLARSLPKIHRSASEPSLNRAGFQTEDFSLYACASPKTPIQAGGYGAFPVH
Assay [2] deals with RAF proto-oncogene serine/threonine-protein kinase (Homo sapiens, UniProt P04049). Briefly: Inhibition of human CRAF using MEK1 as substrate by [gamma-33P]-ATP assay.
Sequence of RAF proto-oncogene serine/threonine-protein kinase (P04049 whole entry): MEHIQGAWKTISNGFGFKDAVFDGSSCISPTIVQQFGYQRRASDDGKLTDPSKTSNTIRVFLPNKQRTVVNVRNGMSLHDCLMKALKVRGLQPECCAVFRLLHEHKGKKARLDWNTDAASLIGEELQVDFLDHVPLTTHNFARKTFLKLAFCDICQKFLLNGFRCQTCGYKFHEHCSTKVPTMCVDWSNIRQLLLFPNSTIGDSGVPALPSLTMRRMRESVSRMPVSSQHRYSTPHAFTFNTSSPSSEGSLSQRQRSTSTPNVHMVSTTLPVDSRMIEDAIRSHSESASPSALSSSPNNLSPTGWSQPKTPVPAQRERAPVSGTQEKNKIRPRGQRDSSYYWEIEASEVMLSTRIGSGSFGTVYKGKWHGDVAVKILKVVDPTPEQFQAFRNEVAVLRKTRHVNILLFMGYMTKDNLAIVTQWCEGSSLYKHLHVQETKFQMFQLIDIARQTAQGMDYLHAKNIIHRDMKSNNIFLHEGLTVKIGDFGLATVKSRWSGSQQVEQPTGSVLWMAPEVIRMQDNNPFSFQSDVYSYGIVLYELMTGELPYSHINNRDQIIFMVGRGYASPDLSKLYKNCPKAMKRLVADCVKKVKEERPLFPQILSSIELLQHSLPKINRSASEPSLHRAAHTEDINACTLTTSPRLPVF
The target of assay [3] is Serine/threonine-protein kinase B-raf (Homo sapiens, UniProt P15056). Briefly: Inhibition of human BRAF using MEK1 as substrate by […] assay.
Sequence of Serine/threonine-protein kinase B-raf (Homo sapiens, UniProt P15056) (P15056 whole entry): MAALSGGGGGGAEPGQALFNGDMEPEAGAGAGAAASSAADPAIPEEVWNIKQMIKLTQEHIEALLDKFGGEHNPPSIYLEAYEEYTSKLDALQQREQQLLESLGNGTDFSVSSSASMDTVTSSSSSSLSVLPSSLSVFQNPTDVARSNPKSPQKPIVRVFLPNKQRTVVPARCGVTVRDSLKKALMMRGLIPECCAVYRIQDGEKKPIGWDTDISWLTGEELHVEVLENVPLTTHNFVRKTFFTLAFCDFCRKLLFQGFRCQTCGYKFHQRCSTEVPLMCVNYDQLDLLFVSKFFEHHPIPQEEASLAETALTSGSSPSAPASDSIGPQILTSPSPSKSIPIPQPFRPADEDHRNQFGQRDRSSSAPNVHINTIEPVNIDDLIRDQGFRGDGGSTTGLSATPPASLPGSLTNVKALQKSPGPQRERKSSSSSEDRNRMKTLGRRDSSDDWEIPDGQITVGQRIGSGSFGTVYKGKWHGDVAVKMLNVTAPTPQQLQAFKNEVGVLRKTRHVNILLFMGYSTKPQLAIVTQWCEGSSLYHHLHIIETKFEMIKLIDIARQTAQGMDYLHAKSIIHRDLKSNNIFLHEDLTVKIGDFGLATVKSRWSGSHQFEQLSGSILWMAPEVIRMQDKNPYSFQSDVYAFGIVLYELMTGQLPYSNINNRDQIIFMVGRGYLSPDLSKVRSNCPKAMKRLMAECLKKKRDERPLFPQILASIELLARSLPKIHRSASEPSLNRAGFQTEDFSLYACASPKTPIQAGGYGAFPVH

Molecules are shown by their SMILES. pIC50: −log10 of the molar value.

Turning to `Cc1ccc(C(=O)NCCNc2nccc(-c3c(-c4cccc(F)c4)nc4sccn34)n2)cc1`, the figures for the negative-log IC50 (pIC50) in the assay on SK-MEL-28, in the assay on A-375 and in the assay with L132 were 4.73, 5.23 and 3.61, respectively.
In the case of `O=C(NCCCNc1nccc(-c2c(-c3cccc(F)c3)nc3sccn23)n1)c1ccc(Cl)cc1`, the negative-log IC50 (pIC50) is less than 4.70 with SK-MEL-28 and 4.86 with A-375.
On to `Cc1ccc(S(=O)(=O)NCCNc2nccc(-c3c(-c4cccc(F)c4)nc4sccn34)n2)cc1`, for which the pIC50 was less than 4.70 with SK-MEL-28 and 4.81 in the assay on A-375.
Regarding `COc1ccc(S(=O)(=O)NCCCNc2nccc(-c3c(-c4cccc(F)c4)nc4sccn34)n2)cc1`, the negative logarithm of the IC50 (pIC50) is 7.60 in assay [1]; 7.58 in assay [2]; 5.05 in the assay on SK-MEL-28; 5.26 with A-375; 7.26 in assay [3].
As to `CNC(=O)c1cc(Oc2ccc(NC(=O)Nc3ccc(Cl)c(C(F)(F)F)c3)cc2)ccn1` [SORAFENIB], the negative logarithm of the IC50 (pIC50) in the assay with SK-MEL-28 was 5.02; with A-375 it was 5.10.

One may read the pIC50 as the IC50 on a negative log10 scale, so that one unit is a factor of ten.

The values are drawn from ChEMBL document CHEMBL4665642, “Anticancer profile of newly synthesized BRAF inhibitors possess 5-(pyrimidin-4-yl)imidazo[2,1-b]thiazole scaffold” (Bioorg Med Chem, 2019).
